According to PubChem BioAssay (NCI):
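Test compounds were applied to cells in 96-well plates for 48 hours at 5 doses. GI50 is the concentration that inhibits growth by half. The concentration for full growth arrest is given as TGI.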

Key:
Experiment in all cases: NCI-60 cell line screen, 48 h
UACC-257 melanoma = tested on: UACC-257 melanoma
BT-549 breast = tested on: BT-549 breast
SNB-19 CNS = tested on: SNB-19 CNS
MCF7 breast = tested on: MCF7 breast
MDA-MB-231 breast = tested on: MDA-MB-231 breast
SN12C renal = tested on: SN12C renal
SNB-75 CNS = tested on: SNB-75 CNS
K-562 leukemia = tested on: K-562 leukemia
786-0 renal = tested on: 786-0 renal
OVCAR-4 ovarian = tested on: OVCAR-4 ovarian
PC-3 prostate = tested on: PC-3 prostate
T-47D breast = tested on: T-47D breast
SF-539 CNS = tested on: SF-539 CNS
HCT-116 colon = tested on: HCT-116 colon
OVCAR-8 ovarian = tested on: OVCAR-8 ovarian
TK-10 renal = tested on: TK-10 renal
NCI-H226 lung = tested on: NCI-H226 lung
HCC-2998 colon = tested on: HCC-2998 colon
MOLT-4 leukemia = tested on: MOLT-4 leukemia
ACHN renal = tested on: ACHN renal
MDA-MB-435 = tested on: MDA-MB-435
HS 578T breast = tested on: HS 578T breast
SF-295 CNS = tested on: SF-295 CNS
SF-268 CNS = tested on: SF-268 CNS
NCI-H522 lung = tested on: NCI-H522 lung
HOP-62 NSCLC = tested on: HOP-62 NSCLC
OVCAR-5 ovarian = tested on: OVCAR-5 ovarian
NCI-H23 lung = tested on: NCI-H23 lung
SK-MEL-2 melanoma = tested on: SK-MEL-2 melanoma
DU-145 prostate = tested on: DU-145 prostate
LOX IMVI melanoma = tested on: LOX IMVI melanoma
A549 NSCLC = tested on: A549 NSCLC
RPMI-8226 leukemia = tested on: RPMI-8226 leukemia
EKVX NSCLC = tested on: EKVX NSCLC
UACC-62 melanoma = tested on: UACC-62 melanoma
HT29 colon = tested on: HT29 colon
HCT-15 colon = tested on: HCT-15 colon
SK-MEL-5 melanoma = tested on: SK-MEL-5 melanoma
KM12 colon = tested on: KM12 colon
HL-60(TB) leukemia = tested on: HL-60(TB) leukemia
OVCAR-3 ovarian = tested on: OVCAR-3 ovarian
SK-OV-3 ovarian = tested on: SK-OV-3 ovarian
U251 CNS = tested on: U251 CNS
UO-31 renal = tested on: UO-31 renal
NCI/ADR-RES ovarian = tested on: NCI/ADR-RES ovarian
RXF 393 renal = tested on: RXF 393 renal
IGROV1 ovarian = tested on: IGROV1 ovarian
CCRF-CEM leukemia = tested on: CCRF-CEM leukemia
SK-MEL-28 melanoma = tested on: SK-MEL-28 melanoma
SW-620 colon = tested on: SW-620 colon
COLO 205 colon = tested on: COLO 205 colon
CAKI-1 renal = tested on: CAKI-1 renal
HOP-92 NSCLC = tested on: HOP-92 NSCLC
NCI-H460 lung = tested on: NCI-H460 lung

Clc1ccc(OCc2nn3c(CCCCc4nnc5sc(COc6ccc(Cl)cc6Cl)nn45)nnc3s2)c(Cl)c1
GI50 (UACC-257 melanoma): 72.7 µM | TGI (UACC-257 melanoma): > 100 µM | GI50 (BT-549 breast): 54.2 µM | TGI (BT-549 breast): > 100 µM | GI50 (SNB-19 CNS): 76.8 µM | TGI (SNB-19 CNS): > 100 µM | GI50 (MCF7 breast): 48.1 µM | TGI (MCF7 breast): > 100 µM | GI50 (MDA-MB-231 breast): 44.3 µM | TGI (MDA-MB-231 breast): > 100 µM | GI50 (SN12C renal): 94.3 µM | TGI (SN12C renal): > 100 µM | GI50 (SNB-75 CNS): 33.3 µM | TGI (SNB-75 CNS): > 100 µM | GI50 (K-562 leukemia): 22.7 µM | TGI (K-562 leukemia): 61 µM | GI50 (786-0 renal): 65.4 µM | TGI (786-0 renal): > 100 µM | GI50 (OVCAR-4 ovarian): 50.3 µM | TGI (OVCAR-4 ovarian): > 100 µM | GI50 (PC-3 prostate): 47.8 µM | TGI (PC-3 prostate): > 100 µM | GI50 (T-47D breast): 43.9 µM | TGI (T-47D breast): > 100 µM | GI50 (SF-539 CNS): 55.8 µM | TGI (SF-539 CNS): > 100 µM | GI50 (HCT-116 colon): 18.1 µM | TGI (HCT-116 colon): 63.1 µM | GI50 (OVCAR-8 ovarian): 46.2 µM | TGI (OVCAR-8 ovarian): > 100 µM | GI50 (TK-10 renal): 32.6 µM | TGI (TK-10 renal): 92 µM | GI50 (NCI-H226 lung): 38 µM | TGI (NCI-H226 lung): > 100 µM | GI50 (HCC-2998 colon): 35.3 µM | TGI (HCC-2998 colon): > 100 µM | GI50 (MOLT-4 leukemia): 18.4 µM | TGI (MOLT-4 leukemia): 48.5 µM | GI50 (ACHN renal): 93.6 µM | TGI (ACHN renal): > 100 µM | GI50 (MDA-MB-435): 49.6 µM | TGI (MDA-MB-435): > 100 µM | GI50 (HS 578T breast): 36.7 µM | TGI (HS 578T breast): > 100 µM | GI50 (SF-295 CNS): 40.6 µM | TGI (SF-295 CNS): > 100 µM | GI50 (SF-268 CNS): 73.1 µM | TGI (SF-268 CNS): > 100 µM | GI50 (NCI-H522 lung): 45.2 µM | TGI (NCI-H522 lung): > 100 µM | GI50 (HOP-62 NSCLC): 60.1 µM | TGI (HOP-62 NSCLC): > 100 µM | GI50 (OVCAR-5 ovarian): > 100 µM | TGI (OVCAR-5 ovarian): > 100 µM | GI50 (NCI-H23 lung): 37.3 µM | TGI (NCI-H23 lung): > 100 µM | GI50 (SK-MEL-2 melanoma): > 100 µM | TGI (SK-MEL-2 melanoma): > 100 µM | GI50 (DU-145 prostate): 71.9 µM | TGI (DU-145 prostate): > 100 µM | GI50 (LOX IMVI melanoma): 67.1 µM | TGI (LOX IMVI melanoma): > 100 µM | GI50 (A549 NSCLC): 82.6 µM | TGI (A549 NSCLC): > 100 µM | GI50 (RPMI-8226 leukemia): 25.4 µM | TGI (RPMI-8226 leukemia): 59.6 µM | GI50 (EKVX NSCLC): 57.5 µM | TGI (EKVX NSCLC): > 100 µM | GI50 (UACC-62 melanoma): 69.4 µM | TGI (UACC-62 melanoma): > 100 µM | GI50 (HT29 colon): > 100 µM | TGI (HT29 colon): > 100 µM | GI50 (HCT-15 colon): > 100 µM | TGI (HCT-15 colon): > 100 µM | GI50 (SK-MEL-5 melanoma): 42 µM | TGI (SK-MEL-5 melanoma): > 100 µM | GI50 (KM12 colon): 31.9 µM | TGI (KM12 colon): > 100 µM | GI50 (HL-60(TB) leukemia): > 100 µM | TGI (HL-60(TB) leukemia): > 100 µM | GI50 (OVCAR-3 ovarian): 30.4 µM | TGI (OVCAR-3 ovarian): 74.4 µM | GI50 (SK-OV-3 ovarian): > 100 µM | TGI (SK-OV-3 ovarian): > 100 µM | GI50 (U251 CNS): 29 µM | TGI (U251 CNS): 89.7 µM | GI50 (UO-31 renal): > 100 µM | TGI (UO-31 renal): > 100 µM | GI50 (NCI/ADR-RES ovarian): 35.8 µM | TGI (NCI/ADR-RES ovarian): > 100 µM | GI50 (RXF 393 renal): 83.9 µM | TGI (RXF 393 renal): > 100 µM | GI50 (IGROV1 ovarian): 83 µM | TGI (IGROV1 ovarian): > 100 µM | GI50 (CCRF-CEM leukemia): 51 µM | TGI (CCRF-CEM leukemia): > 100 µM | GI50 (SK-MEL-28 melanoma): > 100 µM | TGI (SK-MEL-28 melanoma): > 100 µM | GI50 (SW-620 colon): > 100 µM | TGI (SW-620 colon): > 100 µM | GI50 (COLO 205 colon): 52 µM | TGI (COLO 205 colon): > 100 µM | GI50 (CAKI-1 renal): 40.1 µM | TGI (CAKI-1 renal): > 100 µM | GI50 (HOP-92 NSCLC): 50.3 µM | TGI (HOP-92 NSCLC): > 100 µM | GI50 (NCI-H460 lung): 71.9 µM | TGI (NCI-H460 lung): > 100 µM
